Assay results as given in ChEMBL document CHEMBL1201862, “PubChem BioAssay data set” (2004).
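Values below derive from 48-hour exposures of cells grown in 96-well plates, with endpoints linearly interpolated between the two concentrations bracketing the appropriate inhibition level. At the GI50, growth is halved.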 The source made the active and inactive calls. Rule as the data show it: active = GI50 up to about 1.1 µM and inactive = higher.

Columns and labels:
Test in all cases: NCI-60 cell line screen, 48 h
[1] = tested on: ACHN
[2] = tested on: CAKI-1
[3] = tested on: HL-60
[4] = tested on: HOP-62
[5] = tested on: HOP-92
[6] = tested on: K562
[7] = tested on: KM12
[8] = tested on: LOX IMVI
[9] = tested on: MOLT-4
[10] = tested on: Malme-3M
[11] = tested on: NCI-H522
[12] = tested on: OVCAR-5
[13] = tested on: OVCAR-8
[14] = tested on: RXF 393
[15] = tested on: SK-OV-3
[16] = tested on: TK-10
[17] = tested on: UACC-257
[18] = tested on: HCT-116
[19] = tested on: PC-3
[20] = tested on: T47D

Measured: GI50

CNC(=O)CN(CC(=O)NC)C(=O)NC
inactive: [1] > 100 µM | [2] > 100 µM | [3] > 100 µM | [4] > 100 µM | [5] > 100 µM | [6] > 100 µM | [7] > 100 µM | [8] > 100 µM | [9] > 100 µM | [10] > 100 µM | [11] > 100 µM | [12] > 100 µM | [13] > 100 µM | [14] > 100 µM | [15] > 100 µM | [16] > 100 µM | [17] > 100 µM

Cc1ccc2c(c1)nc(N)n[n+]2[O-]
inactive: [1] > 100 µM | [2] > 100 µM | [18] > 100 µM | [3] > 100 µM | [4] > 100 µM | [6] > 100 µM | [7] > 100 µM | [8] > 100 µM | [9] > 100 µM | [11] > 100 µM | [12] > 100 µM | [13] > 100 µM | [19] > 100 µM | [15] > 100 µM | [20] > 100 µM | [16] > 100 µM | [17] > 100 µM

COc1ccccc1C1c2cc3c(cc2OC(N2CCOCC2)C1C)OCO3 (stereo not given)
inactive: [1] 26.2 µM | [18] 12.4 µM | [4] 17.8 µM | [6] 7.85 µM | [7] 16.4 µM | [8] 16.7 µM | [9] 17.1 µM | [11] 12.7 µM | [12] 16.4 µM | [13] 28.3 µM | [19] 21.5 µM | [20] 13.2 µM | [16] 22 µM | [17] 15.8 µM

CN1C(=O)n2c(nc3ccccc32)C(N=[N+]=[N-])(N=[N+]=[N-])C1=O (stereo not given)
inactive: [1] > 100 µM | [2] 35.2 µM | [18] > 100 µM | [3] > 100 µM | [4] > 100 µM | [5] 86.5 µM | [6] > 100 µM | [7] > 100 µM | [8] 77.3 µM | [9] > 100 µM | [10] > 100 µM | [11] > 100 µM | [12] > 100 µM | [13] > 100 µM | [14] > 100 µM | [15] > 100 µM | [16] > 100 µM | [17] > 100 µM

O=[N+]([O-])/C(C(Cl)=C(Cl)Cl)=C(\Nc1cccc2cccnc12)SCc1ccccc1
inactive: [1] 23.3 µM | [2] 20.7 µM | [18] 19.8 µM | [4] 15.8 µM | [6] 13.4 µM | [7] 17.2 µM | [9] 2.21 µM | [10] 15.3 µM | [12] 30.8 µM | [19] 14.8 µM | [15] 15.8 µM | [20] 17.7 µM | [17] 21.5 µM

CC(C)C(=O)NS(=O)(=O)c1ccccc1
inactive: [1] > 100 µM | [2] > 100 µM | [18] > 100 µM | [3] > 100 µM | [4] > 100 µM | [5] > 100 µM | [6] > 100 µM | [7] > 100 µM | [8] > 100 µM | [9] > 100 µM | [10] > 100 µM | [11] > 100 µM | [12] > 100 µM | [13] > 100 µM | [14] > 100 µM | [15] > 100 µM | [16] > 100 µM | [17] > 100 µM

COC(O)C(=O)c1c2c(cc3c1CCC3)CCC2 (stereo not given)
inactive: [1] > 100 µM | [2] > 100 µM | [18] > 100 µM | [3] 22.6 µM | [4] > 100 µM | [6] 80.9 µM | [7] 70.1 µM | [8] > 100 µM | [9] > 100 µM | [10] > 100 µM | [11] > 100 µM | [12] > 100 µM | [13] > 100 µM | [19] > 100 µM | [15] > 100 µM | [20] > 100 µM | [16] > 100 µM | [17] > 100 µM

CCOC(=O)C(Cc1ccccc1)(Cc1ccc(O)cn1)NC(=O)c1ccccc1 (stereo not given)
inactive: [1] 35.8 µM | [2] 26.2 µM | [18] 24.7 µM | [3] 21.7 µM | [4] 32.2 µM | [5] 18.5 µM | [6] 29.7 µM | [7] 17.5 µM | [8] 19.8 µM | [9] 27.9 µM | [10] 14.2 µM | [11] 15.6 µM | [12] 27.3 µM | [13] 31.6 µM | [19] 18.5 µM | [14] 23.8 µM | [15] 30.6 µM | [16] 32.1 µM | [17] 23.5 µM

CC1CC(N2CCOCC2)=Nc2ccccc2N1Cc1ccccc1 (stereo not given)
inactive: [1] > 100 µM | [2] 25.2 µM | [18] > 100 µM | [3] 29.8 µM | [4] 58.1 µM | [6] 19 µM | [7] 68.7 µM | [8] 43.9 µM | [10] 19 µM | [11] 46.5 µM | [12] > 100 µM | [13] 88.5 µM | [19] 50.6 µM | [14] 16.1 µM | [15] 61.2 µM | [16] > 100 µM | [17] 38.3 µM

COc1c2nc(CCl)[nH]c(=O)c2c(OC)c2nc(CCl)[nH]c(=O)c12
inactive: [1] > 100 µM | [2] > 100 µM | [18] > 100 µM | [3] > 100 µM | [4] > 100 µM | [5] > 100 µM | [6] > 100 µM | [7] > 100 µM | [8] > 100 µM | [9] > 100 µM | [10] > 100 µM | [11] > 100 µM | [12] > 100 µM | [13] > 100 µM | [14] > 100 µM | [15] > 100 µM | [16] > 100 µM | [17] > 100 µM

COC(=O)N1CCc2c(nc(N(C)CCO)[nH]c2=O)C1
inactive: [1] > 100 µM | [2] > 100 µM | [18] > 100 µM | [3] > 100 µM | [4] > 100 µM | [5] > 100 µM | [6] > 100 µM | [7] > 100 µM | [8] > 100 µM | [9] > 100 µM | [10] > 100 µM | [11] > 100 µM | [12] > 100 µM | [13] > 100 µM | [14] > 100 µM | [15] > 100 µM | [16] > 100 µM | [17] > 100 µM

O=[N+]([O-])c1ccc2c(c1)S(=O)(=O)N1Cc3ccccc3CCN21
inactive: [1] > 100 µM | [2] > 100 µM | [18] > 100 µM | [3] > 100 µM | [4] > 100 µM | [5] 62.2 µM | [6] > 100 µM | [7] > 100 µM | [8] > 100 µM | [9] > 100 µM | [10] > 100 µM | [11] > 100 µM | [12] > 100 µM | [13] > 100 µM | [19] > 100 µM | [14] > 100 µM | [16] > 100 µM | [17] 29.1 µM
